Assay results from patent publication US20220273658A1, “SMALL MOLECULE LIVER X RECEPTOR MODULATORS AND USES THEREOF” (University of Houston System, priority 2019, published 2022).

Experiments:
[1] = tested on: LXR ligand-binding domain; assay: TR-FRET assay of co-activator and co-repressor peptide recruitment; type: biochemical
Procedure: (§1) To elucidate mechanisms of inverse agonism by the novel ligands, TR-FRET experiments were conducted to determine the effects of 1E5 and 3A4 on the recruitment of NR co-activators and co-repressors. […] In addition to their functions as inverse agonists, extended treatments with 1E5 and 3A4 also destabilized or decreased LXR proteins.
(§2) The synthesis and characterization of KD-01-39, a derivative of 3A4, have not been described previously.

HPNE cells = assay: growth of non-transformed pancreatic epithelial cells (WST screen; FIG. 32D); type: cell-based, human; details: WST screen
Procedure: The initial identification and subsequent characterization of the two novel LXR ligands and their derivative compounds was carried out in screens in three human pancreatic cancer cell and one non-transformed human pancreatic epithelial cell line in three or more replicate experiments for each cell line using the WST tetrazolium salt reduction assays.
as §2

LXR-LBD = assay: differential scanning fluorimetry; type: binding
Source text: as §2

pancreatic cancer cells = assay: metabolomic analysis using mass spectroscopy in pancreatic cancer cells; type: cell-based, human
Procedure: To further characterize the mechanisms of action of novel LXR modulators 1E5 and 3A4, metabolomic and transcriptomic analysis of pancreatic cancer cells were conducted in response to treatment. […] PDAC tumors have altered metabolism to support its growth and survival. Previous studies have reported that Kras upregulates the non-canonical use of glutamine to maintain NADPH/NADP+ ratio which in turn regulates redox homeostasis. This unconventional use of glutamine by PDAC cells fuel cancer cell proliferation and survival. Glutamine metabolism in PDAC has two unique functions: 1. Glutamine-derived Glutamate is used for glutathione (GSH) biosynthesis. 2. Glutamine facilitates generation of reducing equivalents in the form of NADPH. In PDAC mitochondria, glutamine is converted to glutamate by glutaminase enzyme (GLS1). This glutamine derived glutamate is conventionally converted to alpha-ketoglutarate by glutamate dehydrogenase (GLUD1) to fuel citric acid cycle. However, in PDAC cells glutamate is converted to aspartate in cytosol which is converted to malic acid and NADPH is produced during this process. This process is essential to maintain redox homeostasis in the tumor. However, this non-canonical use of glutamine is dispensable in non-malignant cells. Therefore, targeting GLS1 to decrease the bioavailability of glutamate to act as source of nitrogen and carbon for the synthesis of amino acids and nucleic acids is a viable strategy to target PDAC tumors. […] The effect of 1E5 is similar to BPTES, a potent GLS1 inhibitor.
(§3) TCA cycle intermediates act as anaplerotic substrate for gluconeogenesis and lipogenesis. […] GOT2 converts glutamine-derived glutamate to alpha-KG. During this process oxaloacetate is converted to aspartate which is required to maintain redox homeostasis. Studies have shown that inhibition of GOT2 in PDAC promotes senescence.
(§4) To determine if 1E5 and 3A4 can induce apoptosis, PDAC cells were treated with the LXR ligands and subjected to pro-apoptotic caspase cleavage analysis. […] Metabolomic profiling following treatments with the two ligands indicated the activation of two distinct cell death mechanisms. Ferroptosis is a non-apoptotic form of cell death which is characterized by accumulation of lipid peroxides by loss of glutathione peroxidase 4 (GPX4) activity. It can also be induced by accumulation of intracellular iron and depletion of reduced glutathione (GSH). GPX4 is an anti-oxidant enzyme involved in conversion of PUFA peroxides to PUFA alcohols. GSH is a critical cofactor of GPX4 and acts as a reducing agent to reduce the lipid peroxides. Therefore, direct inhibition of GPX4 activity or reduction in GSH levels trigger ferroptosis. The second mechanism of inducing ferroptosis is accumulation of polyunsaturated fatty acids (PUFAs) in cells. Studies have shown that PUFAs are the most susceptible lipids to peroxidation.
Expression profiles of ferroptosis genes in RNAseq data following 1E5 treatment were also consistent with its pro-ferroptotic actions. […] Polyamines are amino-acid derived polycationic alkylamines that are required for the growth of cells. SAT1 catalyzes the acetylation of spermidine and spermine to form N-acetylspermidine and N-acetylspermine respectively. […] SAT1 induces ferroptosis by upregulating the peroxidation of PUFA arachidonic acid. Ceramides are sphingolipids consisting of sphingosine and fatty acid acyl chain. Cellular stress leads to upregulation of ceramide synthesis which mediate caspase-dependent apoptosis. Accumulation of ceramides/hexosylceramides in the mitochondria leads to the formation of channel like structures in the mitochondrial outer membrane which increases the permeability of pro-apoptotic proteins such as cytochrome c. ER stress is also known to activate de-novo synthesis of ceramides and induce apoptosis by increasing the flow of Ca ions and upregulating the unfolded protein stress response. […]

GLS1 and GOT2 = assay: qPCR of genes involved in glutamine metabolism; type: cell-based, human; details: PDAC cells
Source text: as §3

human PDAC cell lines = assay: cell viability response curves with increasing concentrations; type: cell-based
PDAC cells = assay: pro-apoptotic caspase cleavage analysis; type: cell-based, human
Procedure: as §4
Accumulation of C18 ceramides in the mitochondria leads to the recruitment of auto phagosomes in mitochondria and induces LC3-ceramide dependent lethal mitophagy. […] Darkened circles indicate increases and the size of the circle corresponds to the significance of changes.

MCF-7 = assay: expression of LXR target genes in breast cancer cells; type: cell-based; details: MCF-7, ER-positive
Source text: (§5) The inhibitory effects of LXR ligands in breast cancer cells have been shown previously. […] The observed decreases in LXR protein levels were not affected by proteasome inhibitor MG132.

MDA-MB-231 = assay: as above; type: cell-based; details: MDA-MB-231, triple-negative
Source text: as §5

[2] = tested on: LXR target genes SREBF1c, ABCA1, and ABCG1; assay: expression of LXR target genes in pancreatic cancer cell lines; type: cell-based, human
Source text: To characterize the activity of the newly discovered ligands, the expression of LXR target genes SREBF1c, ABCA1, and ABCG1 was examined following treatment with vehicle, synthetic agonist GW3965, and Compounds 1E5 and 3A4. […] Basal expression of SREBF1c, the canonical LXR target gene involved in the regulation of glucose and lipid metabolism, was disrupted by the addition of novel LXR ligands, whereas their expression was induced following treatment with synthetic agonist GW3965 in all three pancreatic cancer cell lines tested, whereas the effects on ABCA1 and ABCG1 varied between the two novel ligands and across the cell lines.
as §1

**Q.** For `O=c1cc(-c2ccccc2)nc(Nc2cccc(C(F)(F)F)c2)[nH]1` [Compound 1E5, 6-phenyl-2-{[3-(trifluoromethyl)phenyl]amino}-3,4-dihydropyrimidin-4-one], which “co-activator peptide binding to LXR ligand-binding domain” value ([1]; co-activator (D22) peptide) is on record?
**A.** did not affect co-activator peptide binding

**Q.** What about the “binding of NCOR and SMRT co-repressor peptides” value ([1]; co-repressor (NCOR and SMRT-ID2) peptides) of the same compound?
**A.** increased the binding

**Q.** And the “activity against non-transformed HPNE cells” value (HPNE cells)?
**A.** little activity

**Q.** And the “LXR-LBD structure and dye dissociation with increasing temperature” value (LXR-LBD)?
**A.** disrupted the LBD structure

**Q.** And the “glutamate levels (mass spectroscopy)” value (pancreatic cancer cells)?
**A.** decreases in glutamate levels

**Q.** What about the glutamine biosynthesis (pancreatic cancer cells) of the same compound?
**A.** inhibited glutamine biosynthesis

**Q.** What about the “level of glutathione (GSH)” value (pancreatic cancer cells) of the same compound?
**A.** decreased level of GSH

**Q.** And the “levels of TCA cycle intermediates (alpha-KG, citrate and fumarate)” value (pancreatic cancer cells)?
**A.** downregulated

**Q.** And the “levels of asparagine and aspartate” value (pancreatic cancer cells)?
**A.** decreased the levels

**Q.** What about the “levels of polyamine metabolites” value (pancreatic cancer cells; PANC-1) of the same compound?
**A.** depletion of spermidine and spermine and accumulation of putrescine, N-acetylspermidine and N-acetylspermine

**Q.** What about the “levels of polyunsaturated fatty acids (PUFAs)” value (pancreatic cancer cells; PANC-1) of the same compound?
**A.** increased levels of PUFAs

**Q.** What about the “expression of GLS1 and GOT2” value (GLS1 and GOT2) of the same compound?
**A.** downregulated the expression

**Q.** And the “potency in response curves compared to GW3965” value (human PDAC cell lines)?
**A.** more potent activity as compared to GW3965

**Q.** What about the pro-apoptotic caspase cleavage (PDAC cells) of the same compound?
**A.** did not

**Q.** And the “expression of LXR target genes” value (MCF-7)?
**A.** generally down-regulated

**Q.** And the “expression of LXR target genes” value (MDA-MB-231)?
**A.** generally down-regulated

**Q.** And the “basal expression of SREBF1c” value ([2]; all three pancreatic cancer cell lines)?
**A.** disrupted

**Q.** And the “expression of FASN, SCD, and ACC” value ([2]; pancreatic cancer cells)?
**A.** decreased the expression

**Q.** And the “expression of LXR target genes” value ([2]; three pancreatic cancer cell lines)?
**A.** reducing the expression of LXR target genes
